36 molecules from patent US8222416B2, “Azaindole glucokinase activators” (Hoffmann-La Roche Inc., priority 2009, dated 2012) can be followed below.

One assay addresses T1, Recombinant human liver GK1 (GST-GK) (Homo sapiens, UniProt P35557).
T1 construct: made in house; host or cells: E. coli
T1 sequence (P35557 1-466 isoform P35557-2): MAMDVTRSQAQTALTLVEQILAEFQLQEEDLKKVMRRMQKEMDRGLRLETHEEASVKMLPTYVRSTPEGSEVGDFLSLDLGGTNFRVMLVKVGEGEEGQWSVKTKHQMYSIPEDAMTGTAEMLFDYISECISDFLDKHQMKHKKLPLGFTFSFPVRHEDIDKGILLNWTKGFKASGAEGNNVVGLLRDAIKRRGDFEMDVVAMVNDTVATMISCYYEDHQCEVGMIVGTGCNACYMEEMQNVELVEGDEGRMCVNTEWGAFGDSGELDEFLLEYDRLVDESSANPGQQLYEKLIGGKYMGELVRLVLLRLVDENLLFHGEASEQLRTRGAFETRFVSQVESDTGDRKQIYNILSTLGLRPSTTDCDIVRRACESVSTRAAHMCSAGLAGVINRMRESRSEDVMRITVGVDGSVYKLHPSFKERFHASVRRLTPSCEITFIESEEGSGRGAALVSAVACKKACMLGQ
The assay is described as follows: In vitro glucokinase activity assay (G6PDH-coupled, NADH, OD340). In kind it is biochemical. Conditions: at 30 μM. The method, boiled down:
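GST-fused human liver GK1 from E. coli, run at 30° C. in pH 7.1 HEPES with 5 mM glucose, 1 mM ATP and 10% DMSO, coupled via G6PDH to NADH. OD340 rate measured after enzyme start; SC1.5 is the activator concentration raising activity 50% over DMSO control.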
In the case of `CCS(=O)(=O)c1cnc2[nH]c(C(CC3CCCC3)c3ccc(S(C)(=O)=O)cc3)cc2c1` (stereo not drawn) [Example 125, 2-[2-Cyclopentyl-1-(4-methanesulfonyl-phenyl)-ethyl]-5-ethanesulfonyl-1H-pyrrolo[2,3-b]pyridine], the “fold activation of GK” value is given as 1.4 fold at 30.

Staying with this assay, now noted: concentration of activator that produced a 50% increase in the activity of GK; 5 mM D-glucose, 30° C.
Take `O=S(=O)(CCO)c1ccc(C(CC2CCCC2)c2cc3cc(F)cnc3[nH]2)cc1` (stereo not drawn) [Example 88, 2-{4-[2-Cyclopentyl-1-(5-fluoro-1H-pyrrolo[2,3-b]pyridin-2-yl)-ethyl]-benzenesulfonyl}-ethanol]: the SC1.5 amounted to 0.178 µM.
Turning to `O=S(=O)(CCO)c1ccc(C(CC2CCOCC2)c2cc3cc(F)cnc3[nH]2)cc1` (stereo not drawn) [Example 89], the SC1.5 worked out at 2.5 µM.
Still for that read-out and setting: the figure for `CCOCCS(=O)(=O)c1ccc(C(CC2CCCC2)c2cc3cccnc3[nH]2)cc1` (stereo not drawn) [Example 90, 2-{2-Cyclopentyl-1-[4-(2-ethoxy-ethanesulfonyl)-phenyl]-ethyl}-1H-pyrrolo[2,3-b]pyridine] is 0.73 µM; for `O=S(=O)(CCO)c1ccc(C(CC2CCCC2)c2cc3cccnc3[nH]2)cc1` (stereo not drawn) [Example 91] it is 0.832 µM; for `CN(C)CCS(=O)(=O)c1ccc(C(CC2CCCC2)c2cc3cccnc3[nH]2)cc1` (stereo not drawn) [Example 92, (2-{4-[2-Cyclopentyl-1-(1H-pyrrolo[2,3-b]pyridin-2-yl)-ethyl]-benzenesulfonyl}-ethyl)-dimethyl-amine] it is 1.1 µM.
Take `O=S(=O)(CCN1CCOCC1)c1ccc(C(CC2CCCC2)c2cc3cccnc3[nH]2)cc1` (stereo not drawn) [Example 93, 2-{2-Cyclopentyl-1-[4-(2-morpholin-4-yl-ethanesulfonyl)-phenyl]-ethyl}-1H-pyrrolo[2,3-b]pyridine]: the SC1.5 was determined as 1.7 µM.
With `CC(C)(O)c1ccc(C(CC2CCCC2)c2cc3cccnc3[nH]2)c(F)c1` (stereo not drawn) [Example 94, 2-{4-[2-Cyclopentyl-1-(1H-pyrrolo[2,3-b]pyridin-2-yl)-ethyl]-3-fluoro-phenyl}-propan-2-ol], the SC1.5 turned out to be 2.3 µM.
The same measure, in the same setting: the figure for `CC(C)(O)c1ccc(C(CC2CCOCC2)c2cc3cc(F)cnc3[nH]2)cc1F` (stereo not drawn) [Example 97, 2-{2-Fluoro-4-[1-(5-fluoro-1H-pyrrolo[2,3-b]pyridin-2-yl)-2-(tetrahydro-pyran-4-yl)-ethyl]-phenyl}-propan-2-ol] is 2.2 µM; for `CC(C)CC(c1ccc(S(C)(=O)=O)cc1)c1cc2cc(F)cnc2[nH]1` (stereo not drawn) [Example 99, 5-Fluoro-2-[1-(4-methanesulfonyl-phenyl)-3-methyl-butyl]-1H-pyrrolo[2,3-b]pyridine] it is 0.394 µM.
Take `CC(C)CC(c1ccc(S(=O)(=O)CCO)cc1)c1cc2cc(F)cnc2[nH]1` (stereo not drawn) [Example 101]: the SC1.5 amounted to 0.854 µM.
The same measure, in the same setting: the figure for `CC(C)(O)c1ccc(C(CC2CCCC2)c2cc3cc(F)cnc3[nH]2)cc1F` (stereo not drawn) [Example 103, 2-{4-[2-Cyclopentyl-1-(5-fluoro-1H-pyrrolo[2,3-b]pyridin-2-yl)-ethyl]-2-fluoro-phenyl}-propan-2-ol] is 0.18 µM; for `CC(C)CC(c1ccc(C(C)(C)O)c(F)c1)c1cc2cc(F)cnc2[nH]1` (stereo not drawn) [Example 105, 2-{2-Fluoro-4-[1-(5-fluoro-1H-pyrrolo[2,3-b]pyridin-2-yl)-3-methyl-butyl]-phenyl}-propan-2-ol] it is 0.368 µM; for `CN(C)CC(=O)Nc1cnc2[nH]c(C(CC3CCCC3)c3ccc(S(C)(=O)=O)cc3)cc2c1` (stereo not drawn) [Example 107, N-{2-[2-Cyclopentyl-1-(4-methanesulfonyl-phenyl)-ethyl]-1H-pyrrolo[2,3-b]pyridin-5-yl}-2-dimethylamino-acetamide] it is 9.4 µM.
`CCOc1ccc(C(CC2CCCC2)c2cc3cccnc3[nH]2)cn1` (stereo not drawn) [Example 108, 2-[2-Cyclopentyl-1-(6-ethoxy-pyridin-3-yl)-ethyl]-1H-pyrrolo[2,3-b]pyridine]: the SC1.5 turned out to be 2.4 µM.
`c1cncc(C(CC2CCCC2)c2cc3cccnc3[nH]2)c1` (stereo not drawn) [Example 110, 2-(2-Cyclopentyl-1-pyridin-3-yl-ethyl)-1H-pyrrolo[2,3-b]pyridine]: the SC1.5 is 14.1 µM.
`CS(=O)(=O)c1ccc(C(CC2CCCC2)c2cc3cc(Cl)cnc3[nH]2)cc1` (stereo not drawn) [Example 111, 5-Chloro-2-[2-cyclopentyl-1-(4-methanesulfonyl-phenyl)-ethyl]-1H-pyrrolo[2,3-b]pyridine]: the SC1.5 was 0.15 µM.
The same measure, in the same setting: the figure for `CS(=O)(=O)c1ccc(C(CC2CCCC2)c2cc3cccnc3[nH]2)nc1` (stereo not drawn) [Example 112, 2-[2-Cyclopentyl-1-(5-methanesulfonyl-pyridin-2-yl)-ethyl]-1H-pyrrolo[2,3-b]pyridine] is 0.587 µM.
On to `COc1ccc2cc(C(CC3CCCC3)c3ccc(S(C)(=O)=O)cc3)[nH]c2n1` (stereo not drawn) [Example 113, 2-[2-Cyclopentyl-1-(4-methanesulfonyl-phenyl)-ethyl]-6-methoxy-1H-pyrrolo[2,3-b]pyridine], for which the SC1.5 turned out to be 1.8 µM.
For `CS(=O)(=O)c1ccc(C(CC2CCOCC2)c2cc3cc(Cl)cnc3[nH]2)cc1` (stereo not drawn) [Example 114, 5-Chloro-2-[1-(4-methanesulfonyl-phenyl)-2-(tetrahydro-pyran-4-yl)-ethyl]-1H-pyrrolo[2,3-b]pyridine], the SC1.5 worked out at 2.2 µM.
In the case of `CS(=O)(=O)c1ccc(C(O)(CC2CCC2)c2cc3cccnc3[nH]2)cc1` (stereo not drawn) [Example 115, 2-Cyclobutyl-1-(4-methanesulfonyl-phenyl)-1-(1H-pyrrolo[2,3-]pyridin-2-yl)-ethanol], the SC1.5 stood at 7.4 µM.
On the same count and under the same terms, the result for `CS(=O)(=O)c1ccc(/C(=C\C2CCCC2)c2cc3cc(F)cnc3[nH]2)cc1` [Example 116, 2-[(E)-2-cyclopentyl-1-(4-methanesulfonyl-phenyl)-vinyl]-5-fluoro-1H-pyrrolo[2,3-b]pyridine] reads 0.009 µM; that for `CS(=O)(=O)c1ccc(C(CC2CCCC2)c2cc3cc(F)cnc3[nH]2)cc1` (stereo not drawn) [Example 117, 2-[2-Cyclopentyl-1-(4-methanesulfonyl-phenyl)-ethyl]-5-fluoro-1H-pyrrolo[2,3-b]pyridine], 0.071 µM; that for `CC(C)(O)c1ccc(C(CC2CCCC2)c2cc3cc(F)cnc3[nH]2)cc1` (stereo not drawn) [Example 119, 2-{4-[2-Cyclopentyl-1-(5-fluoro-1H-pyrrolo[2,3-b]pyridin-2-yl)-ethyl]-phenyl}-propan-2-ol], 0.78 µM.
On to `CC(C)c1ccc(C(CC2CCCC2)c2cc3cc(F)cnc3[nH]2)cc1` (stereo not drawn) [Example 121, 2-[2-Cyclopentyl-1-(4-isopropyl-phenyl)-ethyl]-5-fluoro-1H-pyrrolo[2,3-b]pyridine], for which the SC1.5 was determined as 0.458 µM.
Same read-out and setting: the figure for `CS(=O)(=O)c1ccc(C(CC2CCOCC2)c2cc3cc(F)cnc3[nH]2)cc1` (stereo not drawn) [Example 123, 5-Fluoro-2-[1-(4-methanesulfonyl-phenyl)-2-(tetrahydro-pyran-4-yl)-ethyl]-1H-pyrrolo[2,3-b]pyridine] is 0.47 µM; for `CS(=O)(=O)c1ccc(C(CC2CCCC2)c2cc3cc(C(F)(F)F)cnc3[nH]2)cc1` (stereo not drawn) [Example 126, 2-[2-Cyclopentyl-1-(4-methanesulfonyl-phenyl)-ethyl]-5-trifluoromethyl-1H-pyrrolo[2,3-b]pyridine] it is 2.0 µM; for `Cc1cnc2[nH]c(C(CC3CCCC3)c3ccc(S(C)(=O)=O)cc3)cc2c1` (stereo not drawn) [Example 128, 2-[2-Cyclopentyl-1-(4-methanesulfonyl-phenyl)-ethyl]-5-methyl-1H-pyrrolo[2,3-b]pyridine] it is 0.85 µM.
Same read-out and setting: the result for `Cc1cccc(C(CC(C)C)c2cc3cccnc3[nH]2)c1` (stereo not drawn) [Example 130, 2-(3-Methyl-1-m-tolyl-butyl)-1H-pyrrolo[2,3-b]pyridine] reads 7.8 µM; that for `CC(C)CC(c1cccc(Cl)c1)c1cc2cccnc2[nH]1` (stereo not drawn) [Example 131, 2-(1-(3-Chloro-phenyl)-3-methyl-butyl)-1H-pyrrolo[2,3-b]pyridine], 9.9 µM; that for `CC(C)CC(c1cccc(F)c1)c1cc2cccnc2[nH]1` (stereo not drawn) [Example 132, 2-(1-(3-Fluoro-phenyl)-3-methyl-butyl)-1H-pyrrolo[2,3-b]pyridine], 10.9 µM.
Same read-out and setting: the result for `CCOc1cccc(C(CC(C)C)c2cc3cccnc3[nH]2)c1` (stereo not drawn) [Example 133, 2-(1-(3-Ethoxy-phenyl)-3-methyl-butyl)-1H-pyrrolo[2,3-b]pyridine] reads 25.0 µM; that for `COc1cccc(C(CC(C)C)c2cc3cccnc3[nH]2)c1` (stereo not drawn) [Example 134, 2-(1-(3-Methoxy-phenyl)-3-methyl-butyl)-1H-pyrrolo[2,3-b]pyridine], 12.9 µM; that for `CC(=O)c1cccc(C(CC(C)C)c2cc3cccnc3[nH]2)c1` (stereo not drawn) [Example 135, 1-{3-[3-Methyl-1-(1H-pyrrolo[2,3-b]pyridin-2-yl)-butyl]-phenyl}-ethanone], 9.6 µM.
Take `CC(C)CC(c1cccc(N(C)C)c1)c1cc2cccnc2[nH]1` (stereo not drawn) [Example 136, N,N-Dimethyl-3-(3-methyl-1-(1H-pyrrolo[2,3-b]pyridine-2-yl)butyl)benzenamine]: the SC1.5 is 14.3 µM.
With `CC(C)CC(c1cccc(-n2cccn2)c1)c1cc2cccnc2[nH]1` (stereo not drawn) [Example 137, 2-(1-(3-(1H-Pyrazol-1-yl)phenyl)-3-methylbutyl)-1H-pyrrolo[2,3-b]pyridine], the SC1.5 stood at 15.2 µM.
